The values below come from patent US9624215B2, “Amine derivative or salt thereof” (TOYAMA CHEMICAL CO., LTD., priority 2012, dated 2017).

Structures are written as SMILES.

This assay relates to normal human neonatal foreskin epidermal keratinocytes (NHEK-F). As to the kind of experiment: Cell proliferation inhibition test. The note with it: Keratinocyte, 72 h, NHEK-F cells, three days incubation, ATPlite or CellTiterGlo, read-out: IC50 (concentration of the compound at which the cell count is reduced by 50%). The assay is classed as cell-based. On the procedure: 2×10^3 normal human neonatal foreskin epidermal keratinocytes (NHEK-F) (Kurabo, KK-4009) were suspended in 100 μL of Humedia-EG2 (Kurabo, KK-2150S) medium, plated in a 96-well plate and incubated overnight. The test compound was added on the following day and the cells were incubated for further three days. The cell count was determined using ATPlite (PerkinElmer, 6016739) or CellTiterGlo (Promega, G7573).
The inhibition rate was calculated from the following formula to determine the concentration of the compound at which the cell count is reduced by 50% (IC50). Inhibition rate (%)=100−(cell count in the presence of test compound/cell count in the absence of test compound)×100
Take `O=C(O)c1cc(Cl)ccc1Nc1ccc2ccn(Cc3ccccc3)c2c1` [Example 4, 2-((1-benzyl-1H-indol-6-yl)amino)-5-chlorobenzoic acid]: the IC50 fell in the range of 100 to 1000 nM.

As to `O=C(O)c1cc(Cl)ccc1Nc1cccc2c1ccn2Cc1ccccc1` [Example 6, 2-((1-benzyl-1H-indol-4-yl)amino)-5-chlorobenzoic acid], the IC50 lay within 10 to 100 nM.

Turning to `O=C(O)c1cc(Cl)ccc1Nc1ccnc2c1ccn2Cc1ccccc1` [Example 9, 2-((1-benzyl-1H-pyrrolo(2,3-b)pyridin-4-yl)amino)-5-chlorobenzoic acid], the IC50 was 10 to 100 nM.

Regarding `O=C(O)c1cc(Cl)ccc1Nc1ccc2c(ccn2Cc2cccc(OCc3ccccn3)c2)c1` [Example 19, 5-chloro-2-((1-(3-(pyridin-2-ylmethoxy)benzyl)-1H-indol-5-yl)amino)benzoic acid], the IC50 was at most 10 nM.

For `O=C(O)c1cc(Cl)ccc1Nc1ccc2c(c1)cc(CO)n2Cc1ccccc1` [Example 25, 2-((1-benzyl-2-(hydroxymethyl)-1H-indol-5-yl)amino)-5-chlorobenzoic acid], the IC50 is 10 to 100 nM.

In the case of `Cn1cc(-c2ccccc2)c2ccc(Nc3ncc(C4CC4)cc3C(=O)O)cc21` [Example 41, 5-cyclopropyl-2-((1-methyl-3-phenyl-1H-indol-6-yl)amino)nicotinic acid], the IC50 lay in the range of 10 to 100 nM.

As to `O=C(O)c1cc(C2CC2)cnc1Nc1ccc2c(-c3ccccc3)c[nH]c2c1` [Example 43, 5-cyclopropyl-2-((3-phenyl-1H-indol-6-yl)amino)nicotinic acid], the IC50 lay in the range of 10 to 100 nM.

With `O=C(O)c1cc(C2CC2)cnc1Nc1ccc2c(-c3ccccc3)cn(CC3CC3)c2c1` [Example 45, 5-cyclopropyl-2-((1-(cyclopropylmethyl)-3-phenyl-1H-indol-6-yl)amino)nicotinic acid], the IC50 is 10 to 100 nM.

For the molecule `O=C(O)c1cc(Cl)ccc1Nc1ccc2c(ccn2-c2ccc(Cl)cc2)c1` [Example 47, 5-chloro-2-((1-(4-chlorophenyl)-1H-indol-5-yl)amino)benzoic acid], the IC50 was at most 10 nM.

As to `O=C(O)c1cc(Cl)ccc1Nc1ccc2c(ccn2-c2cccnc2)c1` [Example 49, 5-chloro-2-((1-(pyridin-3-yl)-1H-indol-5-yl)amino)benzoic acid], the IC50 lay within 10 to 100 nM.

For the molecule `O=C(O)c1cc(Cl)ccc1Nc1ccc2c(c1)c(C(=O)c1ccccc1)cn2Cc1ccccc1` [Example 86, 2-((3-benzoyl-1-benzyl-1H-indol-5-yl)amino)-5-chlorobenzoic acid], the IC50 fell in the range of 100 to 1000 nM.

For `O=C(O)c1cc(Cl)ccc1Nc1ccc2c(c1)c(Cc1ccccc1)cn2Cc1ccccc1` [Example 88, 5-chloro-2-((1,3-dibenzyl-1H-indol-5-yl)amino)benzoic acid], the IC50 is 10 to 100 nM.

Regarding `Cc1ccc(-n2ccc3cc(Nc4ccc(Cl)cc4C(=O)O)ccc32)nn1` [Example 100, 5-chloro-2-((1-(6-methylpyridazin-3-yl)-1H-indol-5-yl)amino)benzoic acid], the IC50 lay in the range of 100 to 1000 nM.

For the molecule `CC(C)c1ccc(Nc2ccc3c(ccn3Cc3ccccc3)c2)c(C(=O)O)c1` [Example 114, 2-((1-benzyl-1H-indol-5-yl)amino)-5-isopropylbenzoic acid], the IC50 is at most 10 nM.

With `O=C(O)c1cc(C(F)(F)F)cnc1Nc1ccc2c(ccn2Cc2ccccc2)c1` [Example 116, 2-((1-benzyl-1H-indol-5-yl)amino)-5-(trifluoromethyl)nicotinic acid], the IC50 was at most 10 nM.

Turning to `CCn1ccc2cc(Nc3ncc(C4CC4)cc3C(=O)O)ccc21` [Example 121, 5-cyclopropyl-2-((1-ethyl-1H-indol-5-yl)amino)nicotinic acid], the IC50 fell in the range of 100 to 1000 nM.

In the case of `CC(C)n1ccc2cc(Nc3ncc(C4CC4)cc3C(=O)O)ccc21` [Example 123, 5-cyclopropyl-2-((1-isopropyl-1H-indol-5-yl)amino)nicotinic acid], the IC50 lay in the range of 10 to 100 nM.

For the molecule `Cc1cnc(Nc2ccc3c(ccn3Cc3ccccc3)c2)c(C(=O)O)c1` [Example 125, 2-((1-benzyl-1H-indol-5-yl)amino)-5-methylnicotinic acid], the IC50 was in the range of 10 to 100 nM.
